Source: US20220098203A1 (priority 2018, published 2022)
Where two headings read alike, the source gives them in different places.

Assays:
MAT2A homodimer = target: T1, MAT2A homodimer (Homo sapiens, UniProt P31153); assay: MAT2A biochemical assay (liberated phosphate, PiColorLock Gold); settings: Table 5a; MAT2A biochemical assay; read-out: Enzyme Inhibition
T1 construct: inferred from the Ni sepharose purification and imidazole elution; made in house; host or cells: SF9 insect cells, recombinant baculovirus (Bac to Bac, pFASTBAC1)
Outline: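 Readout is liberated phosphate (PiColorLock Gold), stoichiometric with SAM production, quantified against a potassium phosphate standard curve. Enzyme: recombinant MAT2A homodimer from Sf9, equilibrated 60 min at 25 °C with compound before 60 min reaction with substrate mix containing 500 μM ATP and 400 μM L-methionine.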

[1] = test system: SAM in HCT116 MTAP-deleted cells; assay: Cellular assay of target engagement (SAM), LC-MS/MS; type: cell-based, human; settings: 72 h, read-out: Cell 72 h SAM Inhibition (MTAP −/−)
Method: Measurement of MAT2A activity in cells was made by direct quantitation of the abundance of the product of its enzymatic activity, SAM. Cancer cells were treated with candidate MAT2A inhibitors for a suitable incubation period, and the cells were then lysed using a reagent which quenched any further enzyme activity. Soluble metabolites including SAM were collected and SAM itself was directly measured from the lysate using quantitative LC-MS/MS.
A typical assay was performed using an HCT116 human colon carcinoma cell line which was genetically engineered to delete the MTAP gene (commercially available from Horizon Discovery). […] Cells were plated in 96-well dishes at appropriate cell density. Following 24 hours, cells were then treated with the candidate MAT2A inhibitor. […] Compound was then transferred to a working stock plate in cell culture media by adding 5 μL of compound in DMSO to 495 μL of cell culture media. This working stock was then added to cells via a further 5-fold dilution, by adding 25 μL of working stock to 100 μL of cells in culture media. Following compound addition, cells were incubated at 37° C./5% CO2 for 72 hrs.
To quantitate SAM levels following compound treatment, cells were gently washed once in ammonium carbonate buffer (75 mM at pH 7.4), placed on dry ice, and lysed with metabolite extraction buffer (80% cold methanol and 20% water (v/v) with acetic acid at 1M final concentration with 200 ng/mL deuterated d3-SAM as internal control). Following centrifugation at 4° C. at 3,200 rpm for 30 minutes, the supernatant was collected and stored at −80° C. until analysis by Liquid Chromatography with tandem Mass Spectrometry (LC-MS/MS). LC-MS/MS analysis was performed using an API6500 Mass Spectrometer (Sciex, Framingham, Mass., USA) operating in positive ion spray mode and equipped with a Waters UPLC Acquity (Waters, Milford, Mass., USA) BEH Amide column.

HCT116 MTAP-/- = assay: Inhibition of cellular proliferation (Cell Titer Glo), HCT116 MTAP-/-; type: cell-based, human; settings: 4 days, read-out: 4 Day Relative Growth Inhibition (MTAP −/−)
Method: (§1) Test compound impact on cancer cell growth was assessed by treating cancer cells with compound for 4 days and then measuring proliferation using an ATP-based cell proliferation readout (Cell Titer Glo, Promega Corporation).
(§2) In a typical assay an isogenic pair of HCT116 human colon carcinoma cell lines which vary only in MTAP deletion status (HCT116 MTAP+/+ and HCT116 MTAP−/−) were plated in 96-well dishes at appropriate cell density. Following 24 hours, cells were then treated with the candidate MAT2A inhibitor. […] Compound was then transferred to a working stock plate in cell culture media by adding 5 μL of compound in DMSO to 495 μL of cell culture media. This working stock was then added to cells via a further 5-fold dilution, by adding 25 μL of working stock to 100 μL of cells in culture media. Following compound addition, cells were incubated at 37° C./5% CO2 for 4 days.
(§3) The plate was then covered with aluminum foil and shaken for 15 minutes to ensure complete mixing and full cell lysis. […] This luminescence measure was converted to a proliferation index by subtracting from each data point the ATP luminescence signal measured from a bank (no cells) well and dividing by the ATP luminescence signal measured in 0.2% DMSO control well adjusted for signal in blank well.

HCT116 MTAP+/+ = assay: Inhibition of cellular proliferation (Cell Titer Glo), HCT116 MTAP+/+; type: cell-based; settings: Homo sapiens, HCT-116, 96 h, Table 5a, 4 days, read-out: 4 Day Relative Growth Inhibition (MTAP +/+)
Method: as §1, §2, §3

[2] = Homo sapiens, HCT-116, Table 5a
[3] = Homo sapiens, HCT-116, 96 h, Table 5a
[4] = Table 6, select pairs of compounds

T1 sequence (P31153 whole entry): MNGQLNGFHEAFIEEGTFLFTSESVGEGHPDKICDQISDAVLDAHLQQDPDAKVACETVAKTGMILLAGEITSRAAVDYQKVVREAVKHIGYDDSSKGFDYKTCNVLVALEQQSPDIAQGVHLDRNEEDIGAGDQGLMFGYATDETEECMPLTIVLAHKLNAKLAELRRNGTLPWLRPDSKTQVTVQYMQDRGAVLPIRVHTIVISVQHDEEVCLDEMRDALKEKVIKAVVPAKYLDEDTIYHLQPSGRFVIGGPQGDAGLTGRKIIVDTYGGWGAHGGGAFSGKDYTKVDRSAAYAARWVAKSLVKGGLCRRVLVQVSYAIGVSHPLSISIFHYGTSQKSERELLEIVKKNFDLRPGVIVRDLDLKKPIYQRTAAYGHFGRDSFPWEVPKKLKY

Row | SMILES | IC50 (MAT2A homodimer) | IC50 [1, 2] | IC50 (HCT116 MTAP-/-; [3]) | IC50 (HCT116 MTAP+/+) | IC50 [1, 4] | IC50 (HCT116 MTAP-/-; [4])
1 | COc1ccc(N2Cc3ccc(NCC(F)(F)F)nc3N(c3ccc(-c4ncn[nH]4)cc3)C2=O)cc1 [Example 113, 1-(4-(1H-1,2,4-triazol-5-yl)phenyl)-3-(4-methoxyphenyl)-7-((2,2,2-trifluoroethyl)amino)-3,4-dihydropyrido[2,3-d]pyrimidin-2(1H)-one] | < 100 nM | < 100 nM | < 100 nM | > 1000 nM | – | –
2 | Cn1cc2cc(N3Cc4ccc(NCC(F)(F)F)nc4N(c4ccc(-c5nc[nH]n5)cc4)C3=O)ccc2n1 [Example 114, 1-(4-(1H-1,2,4-triazol-3-yl)phenyl)-3-(2-methyl-2H-indazol-5-yl)-7-((2,2,2-trifluoroethyl)amino)-3,4-dihydropyrido[2,3-d]pyrimidin-2(1H)-one] | < 100 nM | < 100 nM | < 100 nM | > 1000 nM | – | –
3 | [2H]C([2H])([2H])Oc1ccc(N2C(=O)N(c3ccc4nn(C5CC5)cc4c3)Cc3ccc(OCC(F)F)nc32)cc1 [Example 115, 3-(2-cyclopropyl-2H-indazol-5-yl)-7-(2,2-difluoroethoxy)-1-(4-methoxy-d3-phenyl)-3,4-dihydropyrido[2,3-d]pyrimidin-2(1H)-one] | < 100 nM | 100 to 1000 nM | < 100 nM | > 1000 nM | – | –
4 | [2H]C([2H])([2H])Oc1ccc(N2C(=O)N(c3ccc4nn(C(C)C)cc4c3)Cc3ccc(OCC(F)F)nc32)cc1 [Example 118, 7-(2,2-difluoroethoxy)-3-(2-isopropyl-2H-indazol-5-yl)-1-(4-methoxy-d3-phenyl)-3,4-dihydropyrido[2,3-d]pyrimidin-2(1H)-one] | < 100 nM | 100 to 1000 nM | < 100 nM | > 1000 nM | – | –
5 | [2H]C([2H])([2H])Oc1ccc(N2C(=O)N(c3ccc4nn(CC(F)F)cc4c3)Cc3ccc(OCC(F)F)nc32)cc1 [Example 119, 7-(2,2-difluoroethoxy)-3-(2-(2,2-difluoroethyl)-2H-indazol-5-yl)-1-(4-methoxy-d3-phenyl)-3,4-dihydropyrido[2,3-d]pyrimidin-2(1H)-one] | < 100 nM | < 100 nM | 100 to 1000 nM | > 1000 nM | – | –
6 | [2H]C([2H])([2H])Oc1ccc(N2C(=O)N(c3ccc4nn(CC(F)(F)F)cc4c3)Cc3ccc(OCC(F)F)nc32)cc1 [Example 120, 7-(2,2-difluoroethoxy)-1-(4-methoxy-d3-phenyl)-3-(2-(2,2,2-trifluoroethyl)-2H-indazol-5-yl)-3,4-dihydropyrido[2,3-d]pyrimidin-2(1H)-one] | < 100 nM | 100 to 1000 nM | 100 to 1000 nM | > 1000 nM | – | –
7 | CCOc1ccc2c(n1)N(c1ccc(OC)cc1)C(=O)N(c1ccc3c(c1)N(C)CCO3)C2 [Example 122, 7-ethoxy-1-(4-methoxyphenyl)-3-(4-methyl-3,4-dihydro-2H-benzo[b][1,4]oxazin-6-yl)-3,4-dihydropyrido[2,3-d]pyrimidin-2(1H)-one] | < 100 nM | 100 to 1000 nM | 100 to 1000 nM | > 1000 nM | – | –
8 | [2H]C([2H])([2H])Oc1ccc(N2C(=O)N(c3ccc4nn(CCOC)cc4c3)Cc3ccc(OCC(F)F)nc32)cc1 [Example 125, 7-(2,2-difluoroethoxy)-3-(2-(2-methoxyethyl)-2H-indazol-5-yl)-1-(4-methoxy-d3-phenyl)-3,4-dihydropyrido[2,3-d]pyrimidin-2(1H)-one] | < 100 nM | < 100 nM | < 100 nM | > 1000 nM | – | –
9 | [2H]C([2H])([2H])Oc1ccc(N2C(=O)N(c3ccc4nn(CCC(F)(F)F)cc4c3)Cc3ccc(OCC(F)F)nc32)cc1 [Example 128, 7-(2,2-difluoroethoxy)-1-(4-methoxy-d3-phenyl)-3-(2-(3,3,3-trifluoropropyl)-2H-indazol-5-yl)-3,4-dihydropyrido[2,3-d]pyrimidin-2(1H)-one] | < 100 nM | 100 to 1000 nM | 100 to 1000 nM | > 1000 nM | – | –
10 | [2H]C([2H])([2H])Oc1ccc(N2C(=O)N(c3ccc4nn(CCF)cc4c3)Cc3ccc(OCC(F)F)nc32)cc1 [Example 129, 7-(2,2-difluoroethoxy)-3-(2-(2-fluoroethyl)-2H-indazol-5-yl)-1-(4-methoxy-d3-phenyl)-3,4-dihydropyrido[2,3-d]pyrimidin7-2(1H)-one] | < 100 nM | 100 to 1000 nM | 100 to 1000 nM | > 1000 nM | – | –

Results, then the compound that gave them:

Row | IC50 (MAT2A homodimer) | IC50 [1, 2] | IC50 (HCT116 MTAP-/-; [3]) | IC50 (HCT116 MTAP+/+) | IC50 [1, 4] | IC50 (HCT116 MTAP-/-; [4]) | SMILES
11 | < 100 nM | < 100 nM | 100 to 1000 nM | > 1000 nM | – | – | CCOc1ccc2c(n1)N(c1ccc(OC(F)F)cc1)C(=O)N(c1ccc3nn(C)nc3c1)C2 [Example 110, 1-(4-(difluoromethoxy)phenyl)-7-ethoxy-3-(2-methyl-2H-benzo[d][1,2,3]triazol-5-yl)-3,4-dihydropyrido[2,3-d]pyrimidin-2(1H)-one]
12 | < 100 nM | 100 to 1000 nM | 100 to 1000 nM | > 1000 nM | – | – | CCOc1ccc2c(n1)N(c1ccc(OC(F)F)cc1)C(=O)N(c1ccc3ncccc3c1)C2 [Example 112, 1-(4-(difluoromethoxy)phenyl)-7-ethoxy-3-(quinolin-6-yl)-3,4-dihydropyrido[2,3-d]pyrimidin-2(1H)-one]
13 | < 100 nM | < 100 nM | 100 to 1000 nM | > 1000 nM | – | – | [2H]C([2H])([2H])Oc1ccc(N2C(=O)N(c3ccc4nn(CCC)cc4c3)Cc3ccc(OCC(F)F)nc32)cc1 [Example 123, 7-(2,2-difluoroethoxy)-1-(4-methoxy-d3-phenyl)-3-(2-propyl-2H-indazol-5-yl)-3,4-dihydropyrido[2,3-d]pyrimidin-2(1H)-one]
14 | < 100 nM | < 100 nM | < 100 nM | > 1000 nM | – | – | [2H]C([2H])([2H])Oc1ccc(N2C(=O)N(c3ccc4nn(CC)cc4c3)Cc3ccc(OCC(F)F)nc32)cc1 [Example 124, 7-(2,2-difluoroethoxy)-3-(2-ethyl-2H-indazol-5-yl)-1-(4-methoxy-d3-phenyl)-3,4-dihydropyrido[2,3-d]pyrimidin-2(1H)-one]
15 | < 100 nM | 100 to 1000 nM | 100 to 1000 nM | > 1000 nM | – | – | CCOc1ccc2c(n1)N(c1ccc(OC(F)F)cc1)C(=O)N(c1ccc(OC)cc1)C2 [Example 130, 1-(4-(difluoromethoxy)phenyl)-7-ethoxy-3-(4-methoxyphenyl)-3,4-dihydropyrido[2,3-d]pyrimidin-2(1H)-one]
16 | < 100 nM | < 100 nM | 100 to 1000 nM | 100 to 1000 nM | – | – | CCOc1ccc2c(n1)N(c1ccc(OC(F)F)cc1)C(=O)N(c1ccc3nn(C)cc3c1)C2 [Example 131, 1-(4-(difluoromethoxy)phenyl)-7-ethoxy-3-(2-methyl-2H-indazol-5-yl)-3,4-dihydropyrido[2,3-d]pyrimidin-2(1H)-one]
17 | < 100 nM | 100 to 1000 nM | 100 to 1000 nM | > 1000 nM | 100 to 1000 nM | 100 to 1000 nM | CCSc1ccc2c(n1)N(c1ccc(OC)cc1)C(=O)N(c1ccc3nn(C)cc3c1)C2 [Example 132, 7-(ethylthio)-1-(4-methoxyphenyl)-3-(2-methyl-2H-indazol-5-yl)-3,4-dihydropyrido[2,3-d]pyrimidin-2(1H)-one]
